Results taken from ChEMBL document CHEMBL3885861, “Open TG-GATES”.

Species on record: Rattus norvegicus
Assay: Open TG-GATES - Regimen: Single
Assay type: toxicity, organism-based, Sprague-Dawley
Parameters: regimen Single, gender Male, age 6 weeks
Conditions: in vivo, po, 400 mg/kg, route gavage, dose level High; for APTT / Bas / Eos / Fbg / Hb / Ht / Lym / MCH / MCHC / MCV / Mono / Neu / PT / Plat / RBC / Ret / WBC: tissue Blood; for KIDNEY_L / KIDNEY_R / KIDNEY_TOTAL: tissue Kidney; for LIVER: tissue Liver; for A/G / ALP / ALT / AST / BUN / CRE / Ca / Cl / DBIL / GLC / IP / K / LDH / Na / PL / RALB / TBIL / TC / TG / TP / gamma-GTP: tissue Plasma

Compound `COc1ccc(Cc2nccc3cc(OC)c(OC)cc23)cc1OC` [PAPAVERINE] has a TERMINAL_BW (3 h) of 228.2 g, an APTT (3 h) of 23.4 s and a Bas (3 h) of 0%. The Eos (3 h) was 1%, the Fbg (3 h) was 306.8 mg/dL and the Hb (3 h) was 13.4 g/dL. The Ht (3 h) was 40.3%, the Lym (3 h) was 79% and the MCH (3 h) was 20.7 pg. For the same compound, the MCHC (3 h) was 33.3%, the MCV (3 h) was 62 fL and the Mono (3 h) was 2.4%. It also gave a Neu (3 h) of 16.2%, a PT (3 h) of 15.7 s and a Plat (3 h) of 119 x10_4/uL. The RBC (3 h) was 649.8 x10_4/ul, the Ret (3 h) was 7.4% and the WBC (3 h) was 64.1 x10_2/uL. For the same compound, the KIDNEY_L (3 h) was 1 g, the KIDNEY_R (3 h) was 1 g and the KIDNEY_TOTAL (3 h) was 2 g. It also gave an LIVER (3 h) of 9.9 g, an A/G (3 h) of 1.2 and an ALP (3 h) of 1181 IU/L. The ALT (3 h) was 39 IU/L, the AST (3 h) was 66.8 IU/L and the BUN (3 h) was 11.4 mg/dL. The CRE (3 h) was 0.1 mg/dL, the Ca (3 h) was 10.8 mg/dL and the Cl (3 h) was 107.2 meq/L. The DBIL (3 h) was 0 mg/dL, the GLC (3 h) was 199.4 mg/dL and the IP (3 h) was 9.7 mg/dL. The K (3 h) was 4.1 meq/L, the LDH (3 h) was 182 IU/L and the Na (3 h) was 140.2 meq/L. The PL (3 h) was 124 mg/dL, the RALB (3 h) was 2.9 g/dL and the TBIL (3 h) was 0.014 mg/dL. For the same compound, the TC (3 h) was 75.2 mg/dL, the TG (3 h) was 34 mg/dL and the TP (3 h) was 5.4 g/dL. For the same compound, the gamma-GTP (3 h) was 2.4 IU/L, the TERMINAL_BW (6 h) was 223.8 g and the APTT (6 h) was 22 s. For the same compound, the Bas (6 h) was 0%, the Eos (6 h) was 0.8% and the Fbg (6 h) was 310.8 mg/dL. For the same compound, the Hb (6 h) was 13.1 g/dL, the Ht (6 h) was 40% and the Lym (6 h) was 78%. The MCH (6 h) was 20.6 pg, the MCHC (6 h) was 32.9% and the MCV (6 h) was 62.7 fL. The Mono (6 h) was 3.6%, the Neu (6 h) was 16.6% and the PT (6 h) was 16 s. It also gave a Plat (6 h) of 119.2 x10_4/uL, an RBC (6 h) of 639 x10_4/ul and a Ret (6 h) of 7.8%. It also gave a WBC (6 h) of 84 x10_2/uL, a KIDNEY_L (6 h) of 1 g and a KIDNEY_R (6 h) of 1 g. It also gave a KIDNEY_TOTAL (6 h) of 1.9 g, an LIVER (6 h) of 9.2 g and an A/G (6 h) of 1.2. It also gave an ALP (6 h) of 1322.6 IU/L, an ALT (6 h) of 36 IU/L and an AST (6 h) of 73.6 IU/L. It also gave a BUN (6 h) of 7.6 mg/dL, a CRE (6 h) of 0.1 mg/dL and a Ca (6 h) of 11.2 mg/dL. For the same compound, the Cl (6 h) was 107.4 meq/L, the DBIL (6 h) was 0.006 mg/dL and the GLC (6 h) was 178.4 mg/dL. For the same compound, the IP (6 h) was 10.2 mg/dL, the K (6 h) was 4.3 meq/L and the LDH (6 h) was 151.4 IU/L. It also gave a Na (6 h) of 140.6 meq/L, a PL (6 h) of 125.2 mg/dL and an RALB (6 h) of 2.9 g/dL. It also gave a TBIL (6 h) of 0.036 mg/dL, a TC (6 h) of 75 mg/dL and a TG (6 h) of 38.4 mg/dL. For the same compound, the TP (6 h) was 5.3 g/dL, the gamma-GTP (6 h) was 2 IU/L and the TERMINAL_BW (9 h) was 221.7 g. The APTT (9 h) was 23 s, the Bas (9 h) was 0% and the Eos (9 h) was 0.8%. It also gave a Fbg (9 h) of 313.2 mg/dL, a Hb (9 h) of 13.5 g/dL and a Ht (9 h) of 40.5%. It also gave a Lym (9 h) of 75%, an MCH (9 h) of 20.8 pg and an MCHC (9 h) of 33.3%. For the same compound, the MCV (9 h) was 62.5 fL, the Mono (9 h) was 2.2% and the Neu (9 h) was 21%. For the same compound, the PT (9 h) was 16.2 s, the Plat (9 h) was 120.5 x10_4/uL and the RBC (9 h) was 648.2 x10_4/ul. It also gave a Ret (9 h) of 7.3%, a WBC (9 h) of 73.1 x10_2/uL and a KIDNEY_L (9 h) of 1 g. The KIDNEY_R (9 h) was 1 g, the KIDNEY_TOTAL (9 h) was 2 g and the LIVER (9 h) was 8.5 g. For the same compound, the A/G (9 h) was 1.3, the ALP (9 h) was 1235.8 IU/L and the ALT (9 h) was 26.8 IU/L. For the same compound, the AST (9 h) was 64 IU/L, the BUN (9 h) was 7.8 mg/dL and the CRE (9 h) was 0.1 mg/dL. The Ca (9 h) was 10.9 mg/dL, the Cl (9 h) was 108.6 meq/L and the DBIL (9 h) was 0.008 mg/dL. It also gave a GLC (9 h) of 180.2 mg/dL, an IP (9 h) of 9.5 mg/dL and a K (9 h) of 4.3 meq/L. It also gave an LDH (9 h) of 160 IU/L, a Na (9 h) of 139.8 meq/L and a PL (9 h) of 123.2 mg/dL. The RALB (9 h) was 2.9 g/dL, the TBIL (9 h) was 0.036 mg/dL and the TC (9 h) was 68.2 mg/dL. For the same compound, the TG (9 h) was 33.4 mg/dL, the TP (9 h) was 5.3 g/dL and the gamma-GTP (9 h) was 1.6 IU/L. For the same compound, the TERMINAL_BW (24 h) was 240 g, the APTT (24 h) was 21.2 s and the Bas (24 h) was 0%. For the same compound, the Eos (24 h) was 0.8%, the Fbg (24 h) was 339.6 mg/dL and the Hb (24 h) was 13 g/dL. For the same compound, the Ht (24 h) was 39%, the Lym (24 h) was 78.2% and the MCH (24 h) was 20.8 pg. For the same compound, the MCHC (24 h) was 33.4%, the MCV (24 h) was 62.1 fL and the Mono (24 h) was 2.6%. It also gave a Neu (24 h) of 17.2%, a PT (24 h) of 15.7 s and a Plat (24 h) of 113.2 x10_4/uL. It also gave an RBC (24 h) of 627.8 x10_4/ul, a Ret (24 h) of 6.6% and a WBC (24 h) of 86.7 x10_2/uL. For the same compound, the KIDNEY_L (24 h) was 1 g, the KIDNEY_R (24 h) was 1 g and the KIDNEY_TOTAL (24 h) was 2 g. The LIVER (24 h) was 11.4 g, the A/G (24 h) was 1.3 and the ALP (24 h) was 1398.4 IU/L. It also gave an ALT (24 h) of 41.2 IU/L, an AST (24 h) of 66.6 IU/L and a BUN (24 h) of 14 mg/dL. It also gave a CRE (24 h) of 0.1 mg/dL, a Ca (24 h) of 10.9 mg/dL and a Cl (24 h) of 106 meq/L. The DBIL (24 h) was 0 mg/dL, the GLC (24 h) was 186.8 mg/dL and the IP (24 h) was 7.5 mg/dL. The K (24 h) was 4 meq/L, the LDH (24 h) was 153.2 IU/L and the Na (24 h) was 143.4 meq/L. For the same compound, the PL (24 h) was 149.8 mg/dL, the RALB (24 h) was 3.1 g/dL and the TBIL (24 h) was 0.008 mg/dL. The TC (24 h) was 82 mg/dL, the TG (24 h) was 125.8 mg/dL and the TP (24 h) was 5.4 g/dL. It also gave a gamma-GTP (24 h) of 2 IU/L.
